Test results published in PubChem BioAssay (NCI).
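These data come from cells grown in 96-well plates and exposed to compound for 48 hours at five concentrations. Definition used: TGI = concentration required for complete inhibition of growth.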

How the values were obtained:
Assay in all cases: NCI anticancer screen, dose series, 48 h
LOX IMVI melanoma = system: LOX IMVI melanoma
SR leukemia = system: SR leukemia
A549 NSCLC = system: A549 NSCLC
SK-MEL-5 melanoma = system: SK-MEL-5 melanoma
LXFL 529 NSCLC = system: LXFL 529 NSCLC
NCI-H23 lung = system: NCI-H23 lung
RXF 393 renal = system: RXF 393 renal
UACC-257 melanoma = system: UACC-257 melanoma
HCC-2998 colon = system: HCC-2998 colon
SK-MEL-2 melanoma = system: SK-MEL-2 melanoma
TK-10 renal = system: TK-10 renal
NCI/ADR-RES ovarian = system: NCI/ADR-RES ovarian
PC-3 prostate = system: PC-3 prostate
MDA-MB-435 = system: MDA-MB-435
MDA-N = system: MDA-N

CO[C@H](C(=O)O[C@H]1C(=O)N2CC[C@@H]3CCC[C@H]1C32C)c1ccccc1 (stereo not given in full)
TGI (LOX IMVI melanoma): > 100 µM
TGI (SR leukemia): > 100 µM
TGI (A549 NSCLC): > 100 µM
TGI (SK-MEL-5 melanoma): > 100 µM
TGI (LXFL 529 NSCLC): > 100 µM
TGI (NCI-H23 lung): > 100 µM
TGI (RXF 393 renal): > 100 µM
TGI (UACC-257 melanoma): > 100 µM
TGI (HCC-2998 colon): > 100 µM
TGI (SK-MEL-2 melanoma): > 100 µM

COC(=O)C1CC(c2ccc(Cl)cc2)=NO1 (stereo not given)
TGI (SR leukemia): > 100 µM
TGI (A549 NSCLC): > 100 µM
TGI (SK-MEL-5 melanoma): > 100 µM
TGI (LXFL 529 NSCLC): > 100 µM
TGI (NCI-H23 lung): > 100 µM
TGI (UACC-257 melanoma): > 100 µM
TGI (TK-10 renal): > 100 µM
TGI (HCC-2998 colon): > 100 µM
TGI (SK-MEL-2 melanoma): > 100 µM

CN1C(=S)CSc2ccccc21
TGI (LOX IMVI melanoma): > 100 µM
TGI (SR leukemia): > 100 µM
TGI (A549 NSCLC): > 100 µM
TGI (SK-MEL-5 melanoma): > 100 µM
TGI (LXFL 529 NSCLC): > 100 µM
TGI (NCI-H23 lung): > 100 µM
TGI (RXF 393 renal): > 100 µM
TGI (UACC-257 melanoma): > 100 µM
TGI (TK-10 renal): > 100 µM
TGI (SK-MEL-2 melanoma): > 100 µM

O=C1C(Cl)=C(N2CCN(CCOCCO)CC2)C(=O)c2ccccc21
TGI (NCI/ADR-RES ovarian): 25 µM
TGI (PC-3 prostate): 31.9 µM
TGI (MDA-MB-435): 12.8 µM
TGI (LOX IMVI melanoma): 17.7 µM
TGI (SR leukemia): 8.51 µM
TGI (A549 NSCLC): 34.2 µM
TGI (SK-MEL-5 melanoma): 28.2 µM
TGI (LXFL 529 NSCLC): 3.37 µM
TGI (NCI-H23 lung): 28 µM
TGI (RXF 393 renal): 8.91 µM
TGI (UACC-257 melanoma): 15.7 µM
TGI (MDA-N): 4.17 µM
TGI (TK-10 renal): 34.7 µM
TGI (HCC-2998 colon): 32.1 µM
TGI (SK-MEL-2 melanoma): 23 µM

O=C(O)C1CC(C2CCCCN2)CN2CCCCC12 (stereo not given)
TGI (NCI/ADR-RES ovarian): > 100 µM
TGI (PC-3 prostate): > 100 µM
TGI (MDA-MB-435): > 100 µM
TGI (LOX IMVI melanoma): > 100 µM
TGI (SR leukemia): > 100 µM
TGI (A549 NSCLC): > 100 µM
TGI (SK-MEL-5 melanoma): > 100 µM
TGI (NCI-H23 lung): > 100 µM
TGI (RXF 393 renal): > 100 µM
TGI (UACC-257 melanoma): > 100 µM
TGI (MDA-N): > 100 µM
TGI (TK-10 renal): > 100 µM
TGI (HCC-2998 colon): > 100 µM
TGI (SK-MEL-2 melanoma): > 100 µM

O=C(NNC(=S)Nc1ccc(Cl)cc1)C12CC3CC(CC(C3)C1)C2
TGI (NCI/ADR-RES ovarian): 14.8 µM
TGI (PC-3 prostate): 19.2 µM
TGI (MDA-MB-435): 37.8 µM
TGI (LOX IMVI melanoma): 19 µM
TGI (SR leukemia): 4.83 µM
TGI (A549 NSCLC): 24.9 µM
TGI (SK-MEL-5 melanoma): 15.5 µM
TGI (NCI-H23 lung): 54.7 µM
TGI (RXF 393 renal): 48.6 µM
TGI (UACC-257 melanoma): > 57.3 µM
TGI (MDA-N): 43.6 µM
TGI (TK-10 renal): 70.8 µM
TGI (HCC-2998 colon): 27 µM
TGI (SK-MEL-2 melanoma): 38.2 µM

Cc1ccc(NC(=O)CC(=O)N2N=C(N3CCCCC3)CC2c2ccccc2)cc1 (stereo not given)
TGI (NCI/ADR-RES ovarian): > 100 µM
TGI (PC-3 prostate): > 100 µM
TGI (MDA-MB-435): > 100 µM
TGI (LOX IMVI melanoma): > 100 µM
TGI (SR leukemia): > 100 µM
TGI (A549 NSCLC): > 100 µM
TGI (SK-MEL-5 melanoma): > 100 µM
TGI (NCI-H23 lung): > 100 µM
TGI (RXF 393 renal): > 100 µM
TGI (UACC-257 melanoma): > 100 µM
TGI (MDA-N): > 100 µM
TGI (TK-10 renal): > 100 µM
TGI (HCC-2998 colon): > 100 µM
TGI (SK-MEL-2 melanoma): > 100 µM

O=C(CC(Cc1ccccc1)c1ccc(Oc2ccccc2)cc1)Nc1cccc(Cl)c1 (stereo not given)
TGI (NCI/ADR-RES ovarian): 38.3 µM
TGI (PC-3 prostate): 27.2 µM
TGI (MDA-MB-435): > 100 µM
TGI (LOX IMVI melanoma): 49.2 µM
TGI (SR leukemia): 47.5 µM
TGI (A549 NSCLC): > 100 µM
TGI (SK-MEL-5 melanoma): 26.8 µM
TGI (NCI-H23 lung): > 100 µM
TGI (RXF 393 renal): 62.8 µM
TGI (UACC-257 melanoma): 76.2 µM
TGI (MDA-N): > 100 µM
TGI (TK-10 renal): > 100 µM
TGI (HCC-2998 colon): 31.8 µM
TGI (SK-MEL-2 melanoma): 13.6 µM

O=C1C[C@@H]2[C@@H](CCC23CCCC3)N1
TGI (LOX IMVI melanoma): > 100 µM
TGI (A549 NSCLC): > 100 µM
TGI (SK-MEL-5 melanoma): > 100 µM
TGI (LXFL 529 NSCLC): > 100 µM
TGI (NCI-H23 lung): > 100 µM
TGI (RXF 393 renal): > 100 µM
TGI (UACC-257 melanoma): > 100 µM
TGI (TK-10 renal): > 100 µM
TGI (HCC-2998 colon): > 100 µM
TGI (SK-MEL-2 melanoma): > 100 µM

O=C1C=CC(=O)c2c(O)c(NCCO)c(Cl)c(O)c21
TGI (NCI/ADR-RES ovarian): > 10 µM
TGI (PC-3 prostate): > 10 µM
TGI (MDA-MB-435): 4.23 µM
TGI (LOX IMVI melanoma): 3 µM
TGI (SR leukemia): > 6.94 µM
TGI (A549 NSCLC): 3.78 µM
TGI (SK-MEL-5 melanoma): 2.75 µM
TGI (NCI-H23 lung): 5.59 µM
TGI (RXF 393 renal): 3.46 µM
TGI (UACC-257 melanoma): 2.78 µM
TGI (MDA-N): 3.42 µM
TGI (TK-10 renal): > 10 µM
TGI (HCC-2998 colon): > 7.21 µM
TGI (SK-MEL-2 melanoma): > 6.68 µM

COc1ccc(C(OC(=O)[C@H](O[Si](C)(C)C(C)(C)C)[C@@H](NC(=O)c2ccccc2)c2ccccc2)c2ccc(OC)cc2)cc1
TGI (NCI/ADR-RES ovarian): > 100 µM
TGI (PC-3 prostate): > 100 µM
TGI (MDA-MB-435): > 100 µM
TGI (LOX IMVI melanoma): > 100 µM
TGI (SR leukemia): > 100 µM
TGI (A549 NSCLC): > 100 µM
TGI (SK-MEL-5 melanoma): > 100 µM
TGI (NCI-H23 lung): > 100 µM
TGI (RXF 393 renal): > 100 µM
TGI (UACC-257 melanoma): > 100 µM
TGI (MDA-N): > 100 µM
TGI (TK-10 renal): > 100 µM
TGI (HCC-2998 colon): > 100 µM
TGI (SK-MEL-2 melanoma): > 100 µM

O=S(=O)(O)c1ccc(Nc2ccnc3ccccc23)cc1
TGI (NCI/ADR-RES ovarian): > 100 µM
TGI (PC-3 prostate): > 100 µM
TGI (MDA-MB-435): > 100 µM
TGI (LOX IMVI melanoma): > 100 µM
TGI (SR leukemia): > 100 µM
TGI (A549 NSCLC): > 100 µM
TGI (SK-MEL-5 melanoma): > 100 µM
TGI (NCI-H23 lung): > 100 µM
TGI (RXF 393 renal): > 100 µM
TGI (UACC-257 melanoma): > 100 µM
TGI (MDA-N): > 100 µM
TGI (TK-10 renal): > 100 µM
TGI (HCC-2998 colon): > 100 µM
TGI (SK-MEL-2 melanoma): > 100 µM

C=CCOC1CC(n2cnc3c(N)ncnc32)OC1CO (stereo not given)
TGI (SR leukemia): > 100 µM
TGI (A549 NSCLC): > 100 µM
TGI (SK-MEL-5 melanoma): > 100 µM
TGI (LXFL 529 NSCLC): > 100 µM
TGI (NCI-H23 lung): > 100 µM
TGI (UACC-257 melanoma): > 100 µM
TGI (TK-10 renal): > 100 µM
TGI (HCC-2998 colon): > 100 µM
TGI (SK-MEL-2 melanoma): > 100 µM

CC(C)(C)C(O)CC(O)(C(F)(F)F)C(F)(F)F (stereo not given)
TGI (NCI/ADR-RES ovarian): > 100 µM
TGI (PC-3 prostate): > 100 µM
TGI (MDA-MB-435): > 100 µM
TGI (LOX IMVI melanoma): > 100 µM
TGI (SR leukemia): > 100 µM
TGI (A549 NSCLC): > 100 µM
TGI (SK-MEL-5 melanoma): > 100 µM
TGI (NCI-H23 lung): > 100 µM
TGI (RXF 393 renal): > 100 µM
TGI (UACC-257 melanoma): > 100 µM
TGI (MDA-N): > 100 µM
TGI (TK-10 renal): > 100 µM
TGI (HCC-2998 colon): > 100 µM
TGI (SK-MEL-2 melanoma): > 100 µM
